The target in assay [1] is T1, Bla2 (Bacillus anthracis, UniProt Q93T40). Nature of the assay: biochemical. Type of assay: biochemical.
Assay [2] concerns the target T1, Bla2. In kind it is biochemical.
For assay [3], the system named is Bla2. Particulars: cited from earlier work.

Where two headings read alike, the source gives them in different places.

T1 sequence (Q93T40 1-256): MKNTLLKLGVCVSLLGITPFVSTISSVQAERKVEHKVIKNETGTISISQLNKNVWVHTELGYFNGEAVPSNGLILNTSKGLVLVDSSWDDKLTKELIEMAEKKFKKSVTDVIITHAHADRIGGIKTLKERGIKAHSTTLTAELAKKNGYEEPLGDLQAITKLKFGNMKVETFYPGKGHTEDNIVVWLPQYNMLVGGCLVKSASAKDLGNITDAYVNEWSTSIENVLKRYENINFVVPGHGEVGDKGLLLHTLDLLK

With “N-hydroxy-4-(7-(hydroxyamino)-7-oxoheptyl)-3-methoxybenzamide [Compound 6]”, the IC50 (usually the midpoint of a concentration-inhibition curve) at Bla2 [1] (pH 7, read-out: IC50) stood at 14.9 ± 9.8 µM. Also, on Bla2 [2], the affinity corresponds to a Ki of 4.7 ± 1.4 µM and the mode of inhibition result is recorded as “competitive inhibition”. For the same molecule, the Ki (as a rule, a dissociation constant, usually derived from enzyme kinetics or from competition with a known ligand) at Bla2 [2] (pH 7) came to 4.7 ± 1.4 µM.

As to `CCCCCCCOc1cccc(C(=O)NO)c1` [3-(heptyloxy)-N-hydroxybenzamide], the inhibition result in the assay with Bla2 [3] is “no inhibition”.

Consider “3-chloro-N-hydroxy-4-(7-(hydroxyamino)-7-oxoheptyl)benzamide [Compound 4]”, for which the IC50 on Bla2 [1] (pH 7, read-out: IC50) came out at 20 ± 5 µM. Also, on Bla2 [2], the Ki amounted to 6.4 ± 1.7 µM and the mode of inhibition result was “competitive inhibition”. The same molecule displayed a Ki at Bla2 [2] (pH 7) of 6.4 ± 1.7 µM.

At Bla2 [1], `O=C(CCCCCCC(=O)Nc1ccccc1)NO` [SAHA, suberoylanilide hydroxamic acid, reference compound] yielded an IC50 above 100 µM.

As to `O=C(CCCCCOc1cccc(C(=O)NO)c1)NO` [N-hydroxy-3-((6-(hydroxyamino)-6-oxohexyl)oxy)benzamide], the inhibition result in the assay with Bla2 [3] is given as “significant inhibition”.

(Values after publication PMC9408887 (International Journal of Molecular Sciences, 2022).)
